Laboratory results as given in patent US11491128B2, “Reversible nitroxide derivatives of nitroalkenes that mediate nitrosating and alkylating reactions” (University of Pittsburgh—Of the Commonwealth System of …, priority 2016, dated 2022).

Columns and labels:
[1] = UV-Vis analysis of NO2-CLA generation by decomposition of NO2—NO3—CLA at different pH (312 nm); format: physicochemical; conditions: 312 nm (FIG. 1)
Procedure: Synthetic NO2—NO3—CLA standards were generated by performing independent reactions of 0.5 mg conjugated-9,11-linoleic acid (CLA, cat. no. UC-60A, Nu-Check Prep Inc., Elysian, Minn.) with 2 mM sodium nitrite (NaNO2) in 1 ml artificial gastric fluid for 1 h at 37° C., under continuous agitation. The lipid fraction was extracted by hexane, 50 μl were dried under a stream of nitrogen gas, dissolved in 300 μl methanol and decomposition of the NO2—NO3—CLA with generation of NO2-CLA was measured spectrophotometrically at 312 nm (FIG. 1). The addition of 10 μl acetic acid to the methanolic solution confirmed the stability of NO2—NO3—CLA at acidic pH (FIG. 1, diamond curve).

[2] = N-nitrosation of 2,3-diaminonaphtalene (DAN) to 2,3-naphthotriazole (NAT), followed by HPLC-MS/MS; format: physicochemical; conditions: for formation of NAT: 20 μM DAN
Procedure: To investigate if the degradation of NO2—NO3-CLA induced generation of nitrosative species, N-nitrosation of 2,3-diaminonaphtalene (DAN) to yield 2,3-naphthotriazole (NAT) was performed. Briefly, 25 μl synthetic NO2—NO3-CLA standards were dried under a stream of nitrogen gas, and resuspended in 1 ml of solvents at different polarity with 20 μM DAN. Then, formation of NAT was followed over 60 min by HPLC-MS/MS (FIG. 4).
Analysis of NAT was performed by HPLC-MS/MS using an analytical C18 Luna column (2×20 mm, 5 μm, Phenomenex) at a 0.75 ml/min flow rate, with a gradient solvent system consisting of water containing 0.1% acetic acid (solvent A) and acetonitrile containing 0.1% acetic acid (solvent B). Samples were chromatographically resolved using the following gradient program: 10-100% solvent B (0-3.3 min); 100% solvent B (3.3-4.2 min) followed by 0.8 min re-equilibration to initial conditions. An API4000 Q-trap triple quadrupole mass spectrometer (Applied Biosystems, San Jose, Calif.), equipped with an electrospray ionization source (ESI) in positive mode, was used with the following parameters: declustering potential, 70 V; entrance potential 5; collision cell exit potential 10; collision energy 35; and a desolvation temperature of 650° C. NAT was analyzed using the MRM transition 170.1/115.1.

CCCCCCC(/C=C/C(CCCCCCCC(=O)O)[N+](=O)[O-])O[N+](=O)[O-] (centres unmarked) [NO2—NO3-CLA, (E)-9-nitro-12-(nitrooxy)octadec-10-enoic acid]
degradation of NO2—NO3—CLA with generation of NO2-CLA ([1]; methanolic solution + 10 μl phosphate buffer 50 mM pH 7.4 or 10 μl ammonium hydroxide): pH-dependent | rate of NO2-CLA generation on pH increase from pH 7.4 to more basic pH ([1]; phosphate buffer pH 7.4 versus ammonium hydroxide): faster generation of NO2-CLA | formation of NAT ([2]; dissolved in methanol, over 60 min (FIG. 4, square curve)): none formation of NAT was observed | stability of NO2—NO3-CLA in basic pH ([2]; phosphate buffer 50 mM, pH 7.4 with 100 μM DTPA): instability | formation of NAT ([2]; phosphate buffer 50 mM, pH 7.4 with 100 μM DTPA, over 60 min (FIG. 4, circle curve)): time dependent generation of NAT
